Laboratory results taken from PubChem BioAssay (NCI).
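A five-concentration, 48-hour dose response in 96-well plates underlies each endpoint, interpolated linearly between surrounding concentrations. TGI: total growth inhibition.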

How the values were obtained:
Assay in all cases: NCI tumour cell line growth inhibition, 48 h
SN12C renal = system: SN12C renal
DU-145 prostate = system: DU-145 prostate
UACC-62 melanoma = system: UACC-62 melanoma
COLO 205 colon = system: COLO 205 colon
SK-MEL-2 melanoma = system: SK-MEL-2 melanoma
CAKI-1 renal = system: CAKI-1 renal
LOX IMVI melanoma = system: LOX IMVI melanoma
SK-OV-3 ovarian = system: SK-OV-3 ovarian
HCT-116 colon = system: HCT-116 colon
MCF7 breast = system: MCF7 breast

Compound	TGI (SN12C renal) [µM]	TGI (DU-145 prostate) [µM]	TGI (UACC-62 melanoma) [µM]	TGI (COLO 205 colon) [µM]	TGI (SK-MEL-2 melanoma) [µM]	TGI (CAKI-1 renal) [µM]	TGI (LOX IMVI melanoma) [µM]	TGI (SK-OV-3 ovarian) [µM]	TGI (HCT-116 colon) [µM]	TGI (MCF7 breast) [µM]
COc1ccc(-c2nc3ccccc3c(=O)[nH]2)cc1	> 100	> 100	> 100	> 100	> 100	> 100	> 100	> 100	> 100	> 100
O=c1c(-c2nc3ccccc3c3ccccc3c2=O)nc2ccccc2c2ccccc12	99.1	> 100	> 100	> 100	> 100	> 100	> 100	> 100	71.6	> 100
Cc1nn2c(=O)c([N+](=O)[O-])c(/C=C/c3ccc(F)cc3)nc2s1	21.2	> 31.6	17.5	16.7	19.3	27.9	9.19	> 31.6	15.1	13.3
